Reference: patent US20050090529A1, “3,5 Disubstituted indazole compounds with nitrogen-bearing 5-membered heterocycles, pharmaceutical compositions, and methods for mediating or inhibiting cell proliferation” (PFIZER INC, priority 2003, published 2005)

These compounds were tested on Cyclin-dependent kinase (assay: Cyclin-dependent kinase inhibition, % inhibition at 10 nM (library Examples 99-270)). Conditions: 10 nM compound.
Type: biochemical
Method in brief: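 Radiometric filter assay: kinase transfers ³²P/³³P from 25 μM ATP to a protein substrate in pH 7.4 HEPES buffer with MgCl2, 2% DMSO, 30° C, 20 min. EDTA stop; substrate captured on nitrocellulose or phosphocellulose membrane, washed with phosphoric acid, counted by phosphorimager.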

How did the “% Inhib @ 10 nM” value turn out when CCNCc1cncc(-c2ccc3[nH]nc(-c4ncc(C(=O)N5CCN(CCCN6CCOCC6)CC5)[nH]4)c3c2)c1C [Example 180] was run?
The value was 22%.

With CCNCc1cncc(-c2ccc3[nH]nc(-c4ncc(C(=O)NCCC5CCN(Cc6ccccc6)CC5)[nH]4)c3c2)c1C [Example 192, N-[2-(1-benzylpiperidin-4-yl)ethyl]-2-(5-{5-[(ethylamino)methyl]-4-methylpyridin-3-yl}-1H-indazol-3-yl)-1H-imidazole-5-carboxamide] as the compound, how does the “% Inhib @ 10 nM” value read?
Its value is 30%.

CCNCc1cncc(-c2ccc3[nH]nc(-c4ncc(C(=O)N5CCN(CC(=O)N6CCCCC6)CC5)[nH]4)c3c2)c1C [Example 246, ethyl({4-methyl-5-[3-(5-{[4-(2-oxo-2-piperidin-1-ylethyl)piperazin-1-yl]carbonyl}-1H-imidazol-2-yl)-1H-indazol-5-yl]pyridin-3-yl}methyl)amine] was tested. Which “% Inhib @ 10 nM” value did it give?
Its value is 26%.

Which “% Inhib @ 10 nM” value does the source give for CCNCc1cncc(-c2ccc3[nH]nc(-c4ncc(C(=O)N5CCCN(C(C)=O)CC5)[nH]4)c3c2)c1C [Example 179, {[5-(3-(5-[(4-acetyl-1,4-diazepan-1-yl)carbonyl]-1H-imidazol-2-yl]-1H-indazol-5-yl)-4-methylpyridin-3-yl]methyl}ethylamine] here?
Its value is 53%.

For CCNCc1cncc(-c2ccc3[nH]nc(-c4ncc(C(=O)NCc5ccc(C(C)(C)O)cc5)[nH]4)c3c2)c1C [Example 235, 2-(5-{5-[(ethylamino)methyl]-4-methylpyridin-3-yl}-1H-indazol-3-yl)-N-[4-(1-hydroxy-1-methylethyl)benzyl]-1H-imidazole-5-carboxamide], which “% Inhib @ 10 nM” value is on record?
The value was 63%.

Which “% Inhib @ 10 nM” value does the source give for CCNCc1cncc(-c2ccc3[nH]nc(-c4ncc(C(=O)NC(Cc5cc(C)no5)C5CC5)[nH]4)c3c2)c1C (stereo not shown) [Example 160, N-[1-cyclopropyl-2-(3-methylisoxazol-5-yl)ethyl]-2-(5-{5-[(ethylamino)methyl]-4-methylpyridin-3-yl}-1H-indazol-3-yl)-1H-imidazole-5-carboxamide] here?
Its value is 48%.

For CCNCc1cncc(-c2ccc3[nH]nc(-c4ncc(C(=O)NCCc5c[nH]cn5)[nH]4)c3c2)c1C [Example 161, 2-(5-{5-[(ethylamino)methyl]-4-methylpyridin-3yl-1H-indazol-3yl)-N-2-(1H-imidazol-4-yl)ethyl]-1H-imidazole-5-carboxamide], which “% Inhib @ 10 nM” value is on record?
The value was 48%.

With CCNCc1cncc(-c2ccc3[nH]nc(-c4ncc(C(=O)NCC(O)COc5ccccc5)[nH]4)c3c2)c1C (stereo not shown) [Example 249, 2-(5-{5-[(ethylamino)methyl]-4-methylpyridin-3-yl}-1H-indazol-3-yl)-N-(2-hydroxy-3-phenoxypropyl)-1H-imidazole-5-carboxamide] as the compound, how does the “% Inhib @ 10 nM” value read?
The value was 69%.

With CCNCc1cncc(-c2ccc3[nH]nc(-c4ncc(C(=O)N5CCCC(COCC6CC6)C5)[nH]4)c3c2)c1C (stereo not shown) [Example 269, [(5-(3-[5-({3-[(cyclopropylmethoxy)methyl]piperidin-1-yl}carbonyl)-1H-imidazol-2-yl]-1H-indazol-5-yl}-4-methylpyridin-3-yl)methyl]ethylamine] as the compound, how does the “% Inhib @ 10 nM” value read?
The value was 34%.

For CCNCc1cncc(-c2ccc3[nH]nc(-c4ncc(C(=O)N(CCC#N)CC5CCCO5)[nH]4)c3c2)c1C (stereo not shown) [Example 258], which “% Inhib @ 10 nM” value is on record?
Its value is 49%.

With CCNCc1cncc(-c2ccc3[nH]nc(-c4ncc(C(=O)N5CCC(Cc6ccccc6)C5)[nH]4)c3c2)c1C (stereo not shown) [Example 239] as the compound, how does the “% Inhib @ 10 nM” value read?
The value was 75%.

With CCNCc1cncc(-c2ccc3[nH]nc(-c4ncc(C(=O)N5CCN(c6ccc(F)cc6F)CC5)[nH]4)c3c2)c1C [Example 230] as the compound, how does the “% Inhib @ 10 nM” value read?
The value was 74%.

CCNCc1cncc(-c2ccc3[nH]nc(-c4ncc(C(=O)NCc5ccc(S(C)(=O)=O)cc5)[nH]4)c3c2)c1C [Example 202, 2-(5-{5-[(ethylamino)methyl]-4-methylpyridin-3-yl}-1H-indazol-3-yl)-N-[4-(methylsulfonyl)benzyl]-1H-imidazole-5-carboxamide] was tested. Which “% Inhib @ 10 nM” value did it give?
Its value is 49%.

With CCNCc1cncc(-c2ccc3[nH]nc(-c4ncc(C(=O)NCCN5CCOCC5)[nH]4)c3c2)c1C [Example 103, 2-(5-{5-[(ethylamino)methyl]-4-methylpyridin-3-yl}-1H-indazol-3-yl)-N-(2-morpholin-4-ylethyl)-1H-imidazole-5-carboxamide] as the compound, how does the “% Inhib @ 10 nM” value read?
The value was 40%.

How did the “% Inhib @ 10 nM” value turn out when CCNCc1cncc(-c2ccc3[nH]nc(-c4ncc(C(=O)N(CCC#N)Cc5cccnc5)[nH]4)c3c2)c1C [Example 206, N-(2-cyanoethyl)-2-(5-{5-N(ethylamino)methyl8-4-methylpyridin-3-yl}-1H-indazol-3-yl)-N-(pyridin-3-ylmethyl)-1H-imidazole-5-carboxamide] was run?
The value was 71%.

CCNCc1cncc(-c2ccc3[nH]nc(-c4ncc(C(=O)N5CCC(n6c(=O)[nH]c7ccccc76)CC5)[nH]4)c3c2)c1C [Example 107] was tested. Which “% Inhib @ 10 nM” value did it give?
Its value is 59%.

CCNCc1cncc(-c2ccc3[nH]nc(-c4ncc(C(=O)N5CCC(c6c[nH]c7ccccc67)CC5)[nH]4)c3c2)c1C [Example 201, ethyl({5-(3-(5-{[4-(1H-indol-3-yl)pipendin-1-yl]carbonyl}-1H-imidazol-2-yl)-1H-indazol-5-yl]-4-methylpyridin-3-yl}methyl)amine] was tested. Which “% Inhib @ 10 nM” value did it give?
The value was 67%.

CCNCc1cncc(-c2ccc3[nH]nc(-c4ncc(C(=O)N5CCC6(CC5)CNC(=O)C6)[nH]4)c3c2)c1C [Example 205, 8-{[2-(5-{5-[(ethylamino)methyl]-4-methylpyridin-3-yl}-1H-indazol-3-yl)-1H-imidazol-5-yl]carbanyl}-2,8-diazaspiro[4.5]decan-3-one] was tested. Which “% Inhib @ 10 nM” value did it give?
Its value is 40%.

For CCNCc1cncc(-c2ccc3[nH]nc(-c4ncc(C(=O)N(C)C5CCN(C)C5)[nH]4)c3c2)c1C (stereo not shown) [Example 137, 2-(5-{5-[(ethylamino)methyl]-4-methylpyridin-3-yl}-1H-indazol-3-yl)-N-methyl-N-(1-methylpyrrolidin-3-yl)-1H-imidazole-5-carboxamide], which “% Inhib @ 10 nM” value is on record?
The value was 37%.

For CCNCc1cncc(-c2ccc3[nH]nc(-c4ncc(C(=O)N5CCCC5c5cccc6ccccc56)[nH]4)c3c2)c1C (stereo not shown) [Example 195, ethyl({4-methyl-5-(3-(5-{[2-(1-naphthyl)pyrrolidin-1-yl]carbonyl}-1H-imidazol-2-yl)-1 H-indazol-5-yl]pyridin-3-yl]methyl)amine], which “% Inhib @ 10 nM” value is on record?
Its value is 32%.

Which “% Inhib @ 10 nM” value does the source give for CCNCc1cncc(-c2ccc3[nH]nc(-c4ncc(C(=O)NCc5ccccc5OC)[nH]4)c3c2)c1C [Example 106] here?
Its value is 78%.

How did the “% Inhib @ 10 nM” value turn out when CCNCc1cncc(-c2ccc3[nH]nc(-c4ncc(C(=O)N5CCC(c6ccn[nH]6)CC5)[nH]4)c3c2)c1C [Example 250, ethyl({4-methyl-5-[3-(5-{[4-(1H-pyrazol-5-yl)piperidin-1-yl]carbonyl}-H-imidazol-2-yl)-1 H-indazol-5-yl]pyridin-3-yl}methyl)amine] was run?
Its value is 62%.

With CCNCc1cncc(-c2ccc3[nH]nc(-c4ncc(C(=O)N5CCN(c6ccccc6C#N)CC5)[nH]4)c3c2)c1C [Example 147] as the compound, how does the “% Inhib @ 10 nM” value read?
The value was 69%.

With CCNCc1cncc(-c2ccc3[nH]nc(-c4ncc(C(=O)NCC5COCCO5)[nH]4)c3c2)c1C (stereo not shown) [Example 237, N-(1,4-dioxan-2-ylmethyl)-2-(5-{5-[(ethyamino)methy]-4-methypyridin-3-yl}-1H-indazol-3-yl)-1H-imidazole-5-carboxamide] as the compound, how does the “% Inhib @ 10 nM” value read?
Its value is 47%.

Which “% Inhib @ 10 nM” value does the source give for CCNCc1cncc(-c2ccc3[nH]nc(-c4ncc(C(=O)NCc5ccc(-c6csnn6)cc5)[nH]4)c3c2)c1C [Example 224] here?
The value was 72%.

Which “% Inhib @ 10 nM” value does the source give for CCNCc1cncc(-c2ccc3[nH]nc(-c4ncc(C(=O)N5CCC(c6cccc(O)c6)CC5)[nH]4)c3c2)c1C [Example 191, 3-(1-{[2-(5-{5-[(ethylamino)methyl]-4-methylpyridin-3-yl}-1H-indazol-3-yl)-1H-imidazol-5-yl]carbonyl}piperidin-4-yl)phenol] here?
The value was 74%.

With CCNCc1cncc(-c2ccc3[nH]nc(-c4ncc(C(=O)NCC5(N(C)C)CCOCC5)[nH]4)c3c2)c1C [Example 210] as the compound, how does the “% Inhib @ 10 nM” value read?
Its value is 35%.

Which “% Inhib @ 10 nM” value does the source give for CCNCc1cncc(-c2ccc3[nH]nc(-c4ncc(C(=O)N5CCCC(c6nc7ccccc7[nH]6)C5)[nH]4)c3c2)c1C (stereo not shown) [Example 183, ({5-[3-(5-{[3-(1H-benzimidazol-2-yl)piperidin-1-yl]carbonyl}-1H-imidazol-2-yl)-1H-indazol-5-yl]-4-methylpyridin-3-yl}methyl)ethylamine] here?
Its value is 42%.

With CCNCc1cncc(-c2ccc3[nH]nc(-c4ncc(C(=O)N[C@H](c5ccccc5)[C@@H](O)c5ccccc5)[nH]4)c3c2)c1C [Example 105, 2-(5-{5-[(ethylamino)methyl]-4-methylpyridin-3-yl}-1H-indazol-3-yl)-N-[(1R,2S)-2-hydroxy-1,2-diphenylethyl]-1H-imidazole-5-carboxamide] as the compound, how does the “% Inhib @ 10 nM” value read?
The value was 74%.

Which “% Inhib @ 10 nM” value does the source give for CCNCc1cncc(-c2ccc3[nH]nc(-c4ncc(C(=O)N5CCN6CCCC6C5)[nH]4)c3c2)c1C (stereo not shown) [Example 209] here?
The value was 37%.

CCNCc1cncc(-c2ccc3[nH]nc(-c4ncc(C(=O)N5CCC(C)(c6cccc(OC)c6)C5)[nH]4)c3c2)c1C (stereo not shown) [Example 197, ethyl({5-[3-(5-{[3-(3-methoxyphenyl)-3-methylpyrrolidin-1-yl]carbonyl}-1H-imidazol-2-yl)-1H-indazol-5-yl]-4-methylpyridin-3-yl}methyl)amine] was tested. Which “% Inhib @ 10 nM” value did it give?
The value was 67%.

How did the “% Inhib @ 10 nM” value turn out when CCNCc1cncc(-c2ccc3[nH]nc(-c4ncc(C(=O)NCCc5ccccn5)[nH]4)c3c2)c1C [Example 102] was run?
The value was 81%.

With CCNCc1cncc(-c2ccc3[nH]nc(-c4ncc(C(=O)N(CCOC)CCOC)[nH]4)c3c2)c1C [Example 232, 2-(5-{5-[(ethylamino)methyl]-4-methylpyridin-3-yl}-1H-indazol-3-yl)-N,N-bis(2-methoxyethyl)-1H-imidazole-5-carboxamide] as the compound, how does the “% Inhib @ 10 nM” value read?
The value was 58%.

Which “% Inhib @ 10 nM” value does the source give for CCNCc1cncc(-c2ccc3[nH]nc(-c4ncc(C(=O)NCc5ccc(OC(F)F)cc5)[nH]4)c3c2)c1C [Example 248, N-[4-(difluoromethoxy)benzyl]-2-(5-{5-[(ethylamino)methyl]-4-methylpyridin-3-yl}-1H-indazol-3-yl)-1H-imidazole-5-carboxamide] here?
The value was 67%.
